In patent US12089593B2, “Compositions and methods for treating and preventing dust mite infestation” (EVOLVA SA, priority 2016, dated 2024):

Test system: Dust mite Dermataphagoides farinae
Test: Laboratory bioassay: dust mite susceptibility to nootkatone on treated filter paper envelopes
Format: in vivo
Source text: This example describes a laboratory bioassay in which groups of dust mites were exposed to a solution of the product to determine dust mite susceptibility to nootkatone.
One milliliter of a 1% (wt/vol) nootkatone in ethanol formulation was applied directly to 9 cm discs of filter paper by pipette. The filter papers were allowed to dry completely and were cut to the appropriate size prior to the start of the test. Pure ethanol was used as a control.
Treated and untreated (ethanol-treated only) filter papers were cut into 2.5 inch (6.35 cm) squares and folded into envelopes to serve as containers for the test. Five replicates of 35 dust mites were tested per treatment. After the mites were placed inside, the openings were sealed using clips so that the mites could not escape.
Dust mites were only observed after 72 hours post-introduction to the test containers, due to their small size, and the likelihood of loss of mites during handling. […] Results

[1] = 72 hours post introduction, filter paper treated with 1 mL of 1% (wt/vol) nootkatone in ethanol, dried, five replicates of 35 adult mixed-sex mites

## C=C(C)[C@@H]1CCC2=CC(=O)C[C@@H](C)[C@]2(C)C1 [Nootkatone, nootkatone]
72 hours of exposure to filter papers treated with 1% nootkatone in ethanol
  state of mites after exposure (175 total mites): all dead
[1]
  Means Affected: 100.0%
  Means Dead: 100.0%
  Means KD (knockdown): 0.0%
Dust mites exposed to low concentrations of nootkatone
  mortality rates of dust mites: 100%
